Test results as given in ChEMBL document CHEMBL1201862, “PubChem BioAssay data set” (2004).
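These data come from cells grown in 96-well plates and exposed to compound for 48 hours at five concentrations. GI50 = concentration required for 50% inhibition of growth.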 The source made the active and inactive calls. Rule as the data show it: active = GI50 up to about 1.1 µM and inactive = higher.

Experiments:
Experiment in all cases: inhibition of tumour cell growth, NCI panel, 48 h
EKVX = system: EKVX
UACC-62 = system: UACC-62
Hs-578T = system: Hs-578T
KM12 = system: KM12
HCT-15 = system: HCT-15
MDA-MB-231 = system: MDA-MB-231
UO-31 = system: UO-31
MOLT-4 = system: MOLT-4
SK-MEL-28 = system: SK-MEL-28
LOX IMVI = system: LOX IMVI
U-251 = system: U-251
786-0 = system: 786-0
MDA-MB-435 = system: MDA-MB-435
SK-OV-3 = system: SK-OV-3
SNB-75 = system: SNB-75
SR = system: SR
SF-539 = system: SF-539
SK-MEL-5 = system: SK-MEL-5
HCC 2998 = system: HCC 2998
HL-60 = system: HL-60

Compound | GI50 (EKVX) | GI50 (UACC-62) | GI50 (Hs-578T) | GI50 (KM12) | GI50 (HCT-15) | GI50 (MDA-MB-231) | GI50 (UO-31) | GI50 (MOLT-4) | GI50 (SK-MEL-28) | GI50 (LOX IMVI) | GI50 (U-251) | GI50 (786-0) | GI50 (MDA-MB-435) | GI50 (SK-OV-3) | GI50 (SNB-75) | GI50 (SR) | GI50 (SF-539) | GI50 (SK-MEL-5) | GI50 (HCC 2998) | GI50 (HL-60)
CCCCCCCCCOC(=O)c1cnc(Cl)cn1 | 22.3 µM (inactive) | 18.1 µM (inactive) | 22.8 µM (inactive) | 17.5 µM (inactive) | 17.4 µM | 18.5 µM (inactive) | 18.5 µM (inactive) | 52.7 µM (inactive) | 24 µM (inactive) | 19.8 µM (inactive) | 19.7 µM (inactive) | 72.4 µM (inactive) | 19.9 µM (inactive) | 34.9 µM (inactive) | 22.3 µM (inactive) | 49.1 µM (inactive) | 25.8 µM (inactive) | 17.6 µM (inactive) | – | –
Cc1nc([N+](=O)[O-])cn1-c1nc2ccccn2c1[N+](=O)[O-] | 63.7 µM (inactive) | > 100 µM (inactive) | > 100 µM (inactive) | 48.8 µM (inactive) | > 100 µM | 56.4 µM (inactive) | 88.5 µM (inactive) | – | > 100 µM (inactive) | – | 53.2 µM (inactive) | 61.7 µM (inactive) | > 100 µM (inactive) | 47.2 µM (inactive) | 32.9 µM (inactive) | 42 µM (inactive) | 68.2 µM (inactive) | 81.8 µM (inactive) | 41.2 µM (inactive) | –
O=C(c1cccs1)N(C(=S)OCCOc1ccccc1)c1ccccc1 | 29.5 µM (inactive) | 18.2 µM (inactive) | 58.6 µM (inactive) | 26 µM (inactive) | 27.4 µM | 24.3 µM (inactive) | – | 27.4 µM (inactive) | 24.8 µM (inactive) | 17.1 µM (inactive) | 21.4 µM (inactive) | 25.2 µM (inactive) | 17 µM (inactive) | 30.3 µM (inactive) | 24.3 µM (inactive) | – | 34.3 µM (inactive) | – | 24.7 µM (inactive) | 27.6 µM (inactive)
COC(=O)C1=CSC2(S1)C(C(=O)OC)=CSc1c2ssc1=O (stereo not drawn) | 5.98 µM (inactive) | 1.96 µM (inactive) | 2.36 µM (inactive) | 3.9 µM (inactive) | 1.54 µM | 1.85 µM (inactive) | 1.84 µM (inactive) | 1.97 µM (inactive) | 1.97 µM (inactive) | 1.64 µM (inactive) | 1.54 µM (inactive) | 1.57 µM (inactive) | 1.72 µM (inactive) | 9.42 µM (inactive) | 3.22 µM (inactive) | – | 1.57 µM (inactive) | 2.24 µM (inactive) | 3.01 µM (inactive) | 1.6 µM (inactive)
CC1=C(C)SC(=C2Sc3c(n(C)c(=O)[nH]c3=O)S2)S1 | > 100 µM (inactive) | > 100 µM (inactive) | > 100 µM (inactive) | > 100 µM (inactive) | > 100 µM | > 100 µM (inactive) | > 100 µM (inactive) | > 100 µM (inactive) | > 100 µM (inactive) | > 100 µM (inactive) | > 100 µM (inactive) | > 100 µM (inactive) | > 100 µM (inactive) | > 100 µM (inactive) | > 100 µM (inactive) | – | > 100 µM (inactive) | > 100 µM (inactive) | > 100 µM (inactive) | > 100 µM (inactive)
C=C(C)[C@@H]1CCC2=C[C@H](OC2=O)[C@@]2(C)C[C@@H]2C(=O)/C=C(/C)C(=O)[C@H]1OC(C)=O | 21.2 µM (inactive) | 24.2 µM (inactive) | 16.9 µM (inactive) | 17.7 µM (inactive) | 12.7 µM | 36.4 µM (inactive) | 10.9 µM (inactive) | 5.66 µM (inactive) | 14.8 µM (inactive) | 7.78 µM (inactive) | 28.6 µM (inactive) | 11.4 µM (inactive) | 13.2 µM (inactive) | > 51.9 µM (inactive) | 38.9 µM (inactive) | – | 7.13 µM (inactive) | 16.2 µM (inactive) | 21.7 µM (inactive) | 58.6 µM (inactive)
CNC(=O)CNC(=O)CCC(=O)N(C)C | > 100 µM (inactive) | > 100 µM (inactive) | > 100 µM (inactive) | > 100 µM (inactive) | > 100 µM | > 100 µM (inactive) | > 100 µM (inactive) | > 100 µM (inactive) | > 100 µM (inactive) | > 100 µM (inactive) | > 100 µM (inactive) | > 100 µM (inactive) | > 100 µM (inactive) | > 100 µM (inactive) | > 100 µM (inactive) | – | > 100 µM (inactive) | > 100 µM (inactive) | > 100 µM (inactive) | > 100 µM (inactive)
